Assay results: patent US11352354B2, “Substituted penta-fused hexa-heterocyclic compounds, preparation method therefor, drug combination and use thereof” (Xiamen University, priority 2017, dated 2022)
Values joined by “and” are separate entries in the source; they are usually repeats but may differ in a detail not shown here. Identical values can stand only once. “Also recorded” adds a separate entry of the source.

Tests used:
[1] = test system: JeKo-1 cells; assay: Lysosomal dysfunction caused by inhibition of PIKfyve, Western Blot of cathepsins in JeKo-1 cells; assay type: cell-based; conditions: treatment for 24 hr, FIG. 3
Source text: V. Lysosomal Dysfunction Caused by Inhibition of Compound V-c-17 on PIKfyve (FIG. 3)
After treatment with V-c-17 for 24 hr, JeKo-1 cells were lysed and tested by Western Blot. […] This was similar to the treatment result with the known PIKfyve inhibitor apilimod.

[2] = test system: MDA-MB-231 cells; assay: Vacuolation of MDA-MB-231 cells caused by inhibition of compounds on PIKfyve (microscopy); assay type: cell-based; conditions: for degree of vacuolation, 1 μM, 24 h / degree of vacuolation, 1 μM, 48 h / degree of vacuolation, 10 μM, 24 h / degree of vacuolation, 10 μM, 48 h: MDA-MB-231 cells; on degree of vacuolation, 1 μM, 24 h: key: '+' represents the degree of vacuolation; ++: more '+' indicates more obvious vacuolation; +++: more '+' indicates more obvious vacuolation; ++++: more '+' indicates more obvious vacuolation; '−' represents no vacuolation; on degree of vacuolation, 1 μM, 48 h: key: '+' represents the degree of vacuolation; ++: more '+' indicates more obvious vacuolation; +++: more '+' indicates more obvious vacuolation; ++++: more '+' indicates more obvious vacuolation; '−' represents no vacuolation; on degree of vacuolation, 10 μM, 24 h: key: '+' represents the degree of vacuolation; ++: more '+' indicates more obvious vacuolation; +++: more '+' indicates more obvious vacuolation; ++++: more '+' indicates more obvious vacuolation; '−' represents no vacuolation; on degree of vacuolation, 10 μM, 48 h: key: '+' represents the degree of vacuolation; ++: more '+' indicates more obvious vacuolation; +++: more '+' indicates more obvious vacuolation; ++++: more '+' indicates more obvious vacuolation; '−' represents no vacuolation
Procedure, shortened: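 MDA-MB-231 cells in 12-well plates at 37 °C, 5% CO2 were observed by microscopy after 24 and 48 h of culture for cytoplasmic vacuolation as a readout of PIKfyve inhibition. Scoring was semi-quantitative, from − (none) to increasing +.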

[3] = target: PIKfyve protein (Homo sapiens (Human), UniProt Q9Y2I7); assay: Dissociation equilibrium constant (Kd) of compound and PIKfyve protein, DiscoverX KINOMEscan; assay type: binding; conditions: eleven 3-fold dilutions, curve fitting
Method: II. Determination of Dissociation Equilibrium Constant (Kd Value) of Compound and PIKfyve Protein
The Kd value was determined by DiscoverX's KINOMEscan™ technology according to the following steps:
1. Preparation of magnetic beads: biotin-labeled small molecule ligand and avidin-coated magnetic beads were allowed to interact at room temperature for 30 minutes, and then added with excess biotin, followed by washing with a blocking solution (1% BSA, 0.05% Tween 20, 1 mM DTT) to remove unbound ligand.
2. Binding reaction: in a 384 plate, 0.02 mL system, DNA-labeled protein, small molecule ligand-bound magnetic beads, and different concentrations of compound to be tested were mixed in a reaction solution (0.17×PBS, 0.05% Tween 20, 6 mM DTT) at room temperature with shaking for 1 hr, to which was added an eluant (1×PBS, 0.05% Tween 20) for elution. Magnetic beads were resuspended by an eluant (1×PBS, 0.05% Tween 20, 0.5 μM non-biotin-labeled small molecule ligand), and shaken at room temperature for 30 min before separating out the eluant.
3. Determination of Kd value: the content of protein in the above eluate was determined by qPCR. Eleven 3-fold dilution concentrations were determined for the compound to be tested, with 3 DMSO controls for each concentration, and the Kd value was obtained by curve fitting.

[4] = test system: JeKo-1 cells; assay: Tumor cell growth inhibition by MTS method, JeKo-1; assay type: cell-based; conditions: Homo sapiens, JeKo-1, 120 h, 5 days of culture; for inhibition at 10 µM: read-out: cell growth inhibition rate of compounds at 10 μM
Procedure, shortened: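 Cells seeded at 20000 per well, treated with 8-point 3-fold dilutions from 10 mM DMSO stock in triplicate, 0.1% DMSO controls. MTS read at OD490; IC50 from inhibition rates, or % inhibition at 10 μM.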

[5] = test system: Toledo cells; assay: Growth inhibition of PIKfyve-mediated tumor cells by Cell Titer Glo method, Toledo; assay type: cell-based; conditions: Homo sapiens, 120 h, CellTiter-Glo, 5 days of culture, read-out: Inhibition rate % (Toledo)
Method: (§1) IV. Determination of Growth Inhibition Rates of Compounds Against PIKfyve-Mediated Tumor Cells by Cell Titer Glo Method
(§2) 1. Cell plating: cells in logarithmic growth phase were counted and inoculated in 384-well plate.
(§3) 3. […] RLU was measured on PHERAstar Plus.

[6] = test system: ST486 cells; assay: Growth inhibition of PIKfyve-mediated tumor cells by Cell Titer Glo method, ST486; assay type: cell-based; conditions: Homo sapiens, 120 h, CellTiter-Glo, 5 days of culture, read-out: Inhibition rate % (ST486)
Method: as §1, §2, §3

[7] = test system: JeKo-1 xenograft; assay: Xenograft model of non-Hodgkin's lymphoma cells (JeKo-1) in nude mice; assay type: in vivo; conditions: 25 mg/kg once a day or twice a day
Method: 1. 4-6 weeks old female nude mice were injected subcutaneously with about 1×10^7 JeKo-1 cells;
2. When tumor volume (length×width×height×π/4) reached about 100 mm^3, the mice were randomly divided into four groups: control group, V-c-17 group with a dose of 25 mg/kg once a day, V-c-17 group with a dose of 25 mg/kg twice a day, and apilimod group with a dose of 25 mg/kg once a day, and the initial tumor volume was recorded.
3. The drug or the control solvent was administered intravenously on time every day, the tumor volume was measured every day, and the procedures were continued for 7 days;
(§4) 4. In the last day, the mice were killed 6 hours after administration, the tumor grown under skin was completely peeled off, and the tumor weight was recorded.

[8] = test system: A375; assay: Tumor cell growth inhibition by MTS method, A375; assay type: cell-based; conditions: Homo sapiens, A-375; A375, 3.3 μM; read-out: Inhibition rate %
Method: (§5) III. Determination of IC50 Value of Compound for Inhibiting Tumor Cell Growth by MTS Method
(§6) 1. Cell plating: cells in logarithmic growth phase were counted and inoculated in a 96-well plate (20000 cells per well).
(§7) 2. Administrating agent to cell: 10 mM compound mother solution in DMSO was subjected to 3 fold-gradient dilution, to set 8 concentrations, which were then added to various wells, with three replicates for each concentration, and three blank wells (only culture medium) and three negative controls (containing 0.1% DMSO) on each plate.
(§8) 3. […] The OD value at 490 nm was measured with microplate reader OD490. The cell growth inhibition rate was calculated by the following formula: Cell growth inhibition rate %=1−(ODexperimental group−ODblank group)/(ODnegative group−ODblank group)×100%

[9] = test system: SK-MEL-28; assay: Tumor cell growth inhibition by MTS method, SK-MEL-28; assay type: cell-based; conditions: Homo sapiens; SK-MEL-28, 3.3 μM; read-out: Inhibition rate %
Method: as §5, §6, §7, §8

[10] = test system: SK-MEL-30; assay: Tumor cell growth inhibition by MTS method, SK-MEL-30; assay type: cell-based; conditions: Homo sapiens; SK-MEL-30, 3.3 μM; read-out: Inhibition rate %
Method: as §5, §6, §7, §8

[11] = test system: A549; assay: Tumor cell growth inhibition by MTS method, A549; assay type: cell-based; conditions: Homo sapiens; A549, 3.3 μM; read-out: Inhibition rate %
Method: as §5, §6, §7, §8

[12] = test system: MDA-MB-231; assay: Tumor cell growth inhibition by MTS method, MDA-MB-231; assay type: cell-based; conditions: Homo sapiens; MDA-MB-231, 3.3 μM; read-out: Inhibition rate %
Method: as §5, §6, §7, §8

[13] = test system: MDA-MB-435S; assay: Tumor cell growth inhibition by MTS method, MDA-MB-435S; assay type: cell-based; conditions: Homo sapiens, read-out: Inhibition rate %
Method: as §5, §6, §7, §8

[14] = test system: MCF-7; assay: Tumor cell growth inhibition by MTS method, MCF-7; assay type: cell-based; conditions: Homo sapiens, MCF7; MCF-7, 3.3 μM; read-out: Inhibition rate %
Method: as §5, §6, §7, §8

[15] = test system: HCT116; assay: Tumor cell growth inhibition by MTS method, HCT116; assay type: cell-based; conditions: Homo sapiens, HCT-116; HCT116, 3.3 μM; read-out: Inhibition rate %
Method: as §5, §6, §7, §8

[16] = test system: BGC823; assay: Tumor cell growth inhibition by MTS method, BGC823; assay type: cell-based; conditions: Homo sapiens, BGC-823; BGC823, 3.3 μM; read-out: Inhibition rate %
Method: as §5, §6, §7, §8

[17] = test system: HepG2; assay: Tumor cell growth inhibition by MTS method, HepG2; assay type: cell-based; conditions: Homo sapiens; HepG2, 3.3 μM; read-out: Inhibition rate %
Method: as §5, §6, §7, §8

[18] = test system: MDA-MB-231 xenograft; assay: Xenograft model of triple negative breast cancer cells (MDA-MB-231) in nude mice; assay type: in vivo
Method: 1. 4-6 weeks old female nude mice were injected subcutaneously with about 5×10^6 MDA-MB-231 cells;
2. When tumor volume (length×width×height×0.5) reached about 100 mm^3, the mice were randomly divided into three groups: control group, group with a dose of 5 mg/kg once a day, and group with a dose of 20 mg/kg once a day, and the initial tumor volume was recorded.
3. The drug or the control solvent was administered intravenously on time every day, the tumor volume was measured every day, and the procedures were continued for 12 days;
as §4

PIKfyve protein, sequence (Q9Y2I7 whole entry): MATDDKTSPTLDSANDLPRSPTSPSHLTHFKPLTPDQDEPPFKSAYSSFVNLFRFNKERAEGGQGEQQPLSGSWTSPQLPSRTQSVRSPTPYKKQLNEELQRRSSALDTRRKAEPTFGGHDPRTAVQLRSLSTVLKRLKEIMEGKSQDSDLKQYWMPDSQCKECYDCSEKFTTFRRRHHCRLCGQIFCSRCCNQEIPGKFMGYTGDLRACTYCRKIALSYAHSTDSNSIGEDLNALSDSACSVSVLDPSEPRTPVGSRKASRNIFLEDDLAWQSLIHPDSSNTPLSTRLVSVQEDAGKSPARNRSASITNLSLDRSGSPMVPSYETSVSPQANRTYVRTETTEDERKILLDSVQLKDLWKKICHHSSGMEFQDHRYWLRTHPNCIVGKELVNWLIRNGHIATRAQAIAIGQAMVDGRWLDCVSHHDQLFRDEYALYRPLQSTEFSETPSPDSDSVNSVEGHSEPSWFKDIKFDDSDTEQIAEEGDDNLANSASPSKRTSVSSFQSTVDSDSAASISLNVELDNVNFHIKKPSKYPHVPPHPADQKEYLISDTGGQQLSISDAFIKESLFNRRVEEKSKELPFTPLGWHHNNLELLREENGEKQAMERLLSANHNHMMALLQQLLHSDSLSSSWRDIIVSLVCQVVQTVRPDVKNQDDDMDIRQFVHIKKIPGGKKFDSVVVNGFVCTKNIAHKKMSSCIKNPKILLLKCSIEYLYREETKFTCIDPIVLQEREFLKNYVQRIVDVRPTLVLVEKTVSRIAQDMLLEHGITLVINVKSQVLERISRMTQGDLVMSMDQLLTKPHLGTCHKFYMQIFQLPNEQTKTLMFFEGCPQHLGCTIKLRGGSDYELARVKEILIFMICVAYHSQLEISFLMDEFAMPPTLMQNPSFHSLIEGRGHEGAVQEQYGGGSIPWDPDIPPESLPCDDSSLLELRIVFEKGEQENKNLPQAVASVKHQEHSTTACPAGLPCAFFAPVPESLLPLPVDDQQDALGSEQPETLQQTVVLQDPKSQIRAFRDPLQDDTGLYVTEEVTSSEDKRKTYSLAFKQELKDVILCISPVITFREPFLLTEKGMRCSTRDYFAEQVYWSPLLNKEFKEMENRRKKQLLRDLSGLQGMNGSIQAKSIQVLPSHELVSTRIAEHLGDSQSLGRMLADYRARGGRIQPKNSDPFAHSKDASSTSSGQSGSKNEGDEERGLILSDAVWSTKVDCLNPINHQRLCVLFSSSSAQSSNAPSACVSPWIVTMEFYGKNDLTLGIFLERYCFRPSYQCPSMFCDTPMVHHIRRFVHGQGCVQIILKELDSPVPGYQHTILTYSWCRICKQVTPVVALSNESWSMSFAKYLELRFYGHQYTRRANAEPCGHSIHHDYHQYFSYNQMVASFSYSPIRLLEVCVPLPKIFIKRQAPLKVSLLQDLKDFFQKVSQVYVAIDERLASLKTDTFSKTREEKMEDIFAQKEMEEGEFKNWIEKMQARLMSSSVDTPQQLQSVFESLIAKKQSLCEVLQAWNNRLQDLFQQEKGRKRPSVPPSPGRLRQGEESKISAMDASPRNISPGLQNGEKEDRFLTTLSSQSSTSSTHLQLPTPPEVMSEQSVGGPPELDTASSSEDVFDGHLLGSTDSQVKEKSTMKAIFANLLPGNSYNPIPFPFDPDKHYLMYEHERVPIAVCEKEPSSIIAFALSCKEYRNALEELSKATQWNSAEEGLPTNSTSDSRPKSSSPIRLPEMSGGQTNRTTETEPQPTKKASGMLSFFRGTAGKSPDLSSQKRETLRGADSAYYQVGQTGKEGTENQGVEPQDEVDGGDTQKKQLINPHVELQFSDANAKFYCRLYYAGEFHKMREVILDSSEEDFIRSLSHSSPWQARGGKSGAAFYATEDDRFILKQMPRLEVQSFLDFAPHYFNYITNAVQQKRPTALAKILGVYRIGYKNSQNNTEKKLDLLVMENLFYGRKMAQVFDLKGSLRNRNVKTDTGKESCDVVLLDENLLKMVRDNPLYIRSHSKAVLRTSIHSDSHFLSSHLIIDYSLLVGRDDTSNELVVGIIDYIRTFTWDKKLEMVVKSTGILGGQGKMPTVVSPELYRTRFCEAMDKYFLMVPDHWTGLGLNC

SMILES	degree of vacuolation, 1 μM, 24 h [2]	degree of vacuolation, 1 μM, 48 h [2]	degree of vacuolation, 10 μM, 24 h [2]	degree of vacuolation, 10 μM, 48 h [2]	Kd [3]	IC50 [4]	inhibition at 3.3 µM [5]	inhibition at 3.3 µM [6]	inhibition at 10 µM [4]	other results
Cc1cccc(/C=N/Nc2cc(N3CCOCC3)nc(OCCc3ccccn3)n2)c1 [apilimod, reference compound]										immature cathepsin A and cathepsin D (Western Blot) [1]: immature cathepsins A and D gradually increase, with good dose dependence
COc1ccc(C(=O)Nc2cccc(C(F)(F)F)c2)cc1Nc1nc(-c2cccnc2)c2[nH]ccc2n1 [V-c-17]	++	−	++	+	640 nM	743 nM	99.7%	95.7%		immature cathepsin A and cathepsin D (Western Blot) [1]: immature cathepsins A and D gradually increase, with good dose dependence; also recorded: immature cathepsin A and cathepsin D increased, and had good concentration dependence; tumor volume ([7]; JeKo-1 xenograft mice, tail vein, FIG. 5a): effectively inhibit the increase of tumor volume, with good dose dependence; final tumor weight ([7]; JeKo-1 xenograft mice, tail vein, FIG. 5b): significantly smaller than that in the control group, with good dose dependence; tumor growth ([7]; JeKo-1 xenograft, nude mice, intravenous, 7 days, FIG. 5): Effectively Inhibited Tumor Growth
Cc1ccc(NC(=O)c2cccc(C(F)(F)F)c2)cc1Nc1cc(-c2cccnc2)nc2[nH]ccc12 [I-a-1]	+++	+++	+++	+++		2040 nM				inhibition at 3.3 µM [8]: 94%; inhibition at 3.3 µM [9]: 64%; inhibition at 3.3 µM [10]: 61.9%; inhibition at 3.3 µM [11]: 65.3%; inhibition at 3.3 µM [12]: 48.4%; inhibition at 3.3 µM [13]: 56.2%; inhibition at 3.3 µM [14]: 44.2%; inhibition at 3.3 µM [15]: 55.8%; inhibition at 3.3 µM [16]: 54%; inhibition at 3.3 µM [17]: 64.8%; tumor volume ([18]; MDA-MB-231 xenograft mice, tail vein, 5 mg/kg, 20 mg/kg every day, FIG. 4a): effectively inhibit the increase of tumor volume, with good dose dependence; final tumor weight ([18]; MDA-MB-231 xenograft mice, tail vein, 5 mg/kg, 20 mg/kg every day, FIG. 4b): significantly smaller than that in the control group, with good dose dependence; tumor growth ([18]; MDA-MB-231 xenograft, nude mice, intravenous, 5 mg/kg and 20 mg/kg once a day, 12 days, FIG. 4): Effectively Inhibited Tumor Growth
Cc1ccc(C(=O)Nc2cccc(NS(C)(=O)=O)c2)cc1Nc1nc(-c2cccnc2)c2[nH]ccc2n1 [V-c-6]	+	++	+++	+++	16 nM	4950 nM	93.9%	69.9%		
Cc1ccc(C(=O)Nc2cccc(OC(F)(F)F)c2)cc1Nc1nc(-c2cccnc2)c2[nH]ccc2n1 [V-c-8]	+++	+++	+++	+++	13 nM		96.3%	51%	39%	
Cc1ccc(NC(=O)c2ccc(C(F)(F)F)cc2)cc1Nc1nc(-c2cccnc2)c2[nH]ccc2n1 [V-c-23]	++	−	++	−	33 nM		94.9%	27.2%	15.8%	
Cc1ccc(NC(=O)Nc2cccc(C(F)(F)F)c2)cc1Nc1nc(-c2cccnc2)c2[nH]ccc2n1 [V-c-15]	++	++	++	++	140 nM		99.6%	57.5%	35.1%	
Cc1ccc(C(=O)Nc2cc(C(F)(F)F)ccc2F)cc1Nc1nc(-c2cccnc2)c2[nH]ccc2n1 [V-c-13]	++	−	++	++	16 nM		99.7%	85.2%	34.3%	
Cc1ccc(NC(=O)c2cccc(C(F)(F)F)c2)cc1Nc1nc(-c2cccnc2)c2[nH]ccc2n1 [V-c-19]	+++	+++	+++	+++	16 nM and 15 nM	2090 nM	97.3%	70.6%		vacuolation of MDA-MB-231 cells (FIG. 1) ([2]; 1 μmol/L, time and concentration dependence): induces vacuolation of MDA-MB-231 cells, with good time dependence; also recorded: induces vacuolation of MDA-MB-231 cells, with good concentration dependence
